PMC11079024, “Identification of a family of species-selective complex I inhibitors as potential anthelmintics” (Nature Communications, 2024)
“And” between values parts separate entries of the source, which are not always exact repeats. Identical values can stand only once. Like-named read-outs stand apart in the source and are kept apart here.

Molecular target: C. elegans (N2) complex I (NADH:ubiquinone oxidoreductase) (Caenorhabditis elegans, UniProt P24887+Q93873+Q94360)
Test: biochemical
Assay type: biochemical
Conditions: for remaining activity at 0.125 µM / remaining activity at 0.313 µM / remaining activity at 0.625 µM / remaining activity at 1.5 µM / remaining activity at 3 µM / remaining activity at 15 µM / remaining activity at 37.5 µM / remaining activity at 75 µM: wild-type C. elegans mitochondria, read-out: percent (%) in vitro complex I activity relative to solvent control; for IC50: wild-type (N2) mitochondria, read-out: C. elegans Complex I IC50
Procedure, shortened: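 Activity expressed as percent of solvent control. Complex I rate came from DCIP reduction at 600 nm (initial linear slope, 15 min) with NADH and decylubiquinone as substrates, plus antimycin A and KCN, in pH 7.5 KPi/BSA buffer. Isolated, thrice freeze-thawed mitochondria used at 0.2 mg/mL.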

[1] = C. elegans, Mean of replicates, read-out: Complex I activity, dose-response data
[2] = C. elegans, individual replicates (Rep), read-out: Complex I activity, dose-response data

C. elegans (N2) complex I (NADH:ubiquinone oxidoreductase), sequence (Q94360 17-199): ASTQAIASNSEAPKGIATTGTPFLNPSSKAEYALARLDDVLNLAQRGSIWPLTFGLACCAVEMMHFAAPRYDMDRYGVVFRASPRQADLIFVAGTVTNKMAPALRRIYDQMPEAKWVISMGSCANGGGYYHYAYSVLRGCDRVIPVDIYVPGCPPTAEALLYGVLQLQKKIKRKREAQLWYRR
C. elegans (N2) complex I (NADH:ubiquinone oxidoreductase), sequence (P24887 whole entry): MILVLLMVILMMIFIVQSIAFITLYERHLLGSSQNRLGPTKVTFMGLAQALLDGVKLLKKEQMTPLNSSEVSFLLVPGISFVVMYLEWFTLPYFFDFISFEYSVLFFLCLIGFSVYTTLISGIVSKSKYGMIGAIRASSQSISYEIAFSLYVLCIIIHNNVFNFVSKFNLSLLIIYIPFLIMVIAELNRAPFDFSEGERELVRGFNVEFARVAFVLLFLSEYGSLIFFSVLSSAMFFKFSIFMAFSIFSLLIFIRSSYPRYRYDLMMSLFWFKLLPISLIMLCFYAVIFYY
C. elegans (N2) complex I (NADH:ubiquinone oxidoreductase), sequence (Q93873 31-482): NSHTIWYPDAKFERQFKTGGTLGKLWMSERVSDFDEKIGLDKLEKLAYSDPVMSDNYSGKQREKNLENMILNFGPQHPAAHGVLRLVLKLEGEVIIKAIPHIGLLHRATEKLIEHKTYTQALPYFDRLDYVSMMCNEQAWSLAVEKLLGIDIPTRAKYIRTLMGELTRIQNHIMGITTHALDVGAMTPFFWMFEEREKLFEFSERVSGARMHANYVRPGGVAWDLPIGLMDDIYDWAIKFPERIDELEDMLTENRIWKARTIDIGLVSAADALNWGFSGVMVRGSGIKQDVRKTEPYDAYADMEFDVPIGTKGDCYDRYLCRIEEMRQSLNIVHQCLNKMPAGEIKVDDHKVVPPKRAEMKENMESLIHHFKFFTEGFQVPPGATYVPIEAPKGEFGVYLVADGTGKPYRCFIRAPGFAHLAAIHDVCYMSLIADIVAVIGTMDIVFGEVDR

## COc1cc2c(cc1OC)C(C(C)c1ccc(CC(C)C)cc1)=NCC2 (stereo not shown) [NPD10504]
Mean of replicates
  remaining activity at 0.125 µM: 92.7%
  remaining activity at 0.313 µM: 91.5%
  remaining activity at 0.625 µM: 100%
  remaining activity at 1.5 µM: 78.6%
  remaining activity at 3 µM: 58.9%
  remaining activity at 15 µM: 13.5%
  remaining activity at 37.5 µM: 12.4%
  remaining activity at 75 µM: 12.3%
Single replicate
  remaining activity at 0.125 µM: 88.8%
  remaining activity at 0.313 µM: 88.6%
  remaining activity at 0.625 µM: 100%
  remaining activity at 1.5 µM: 76.6%
  remaining activity at 3 µM: 61.4%
  remaining activity at 15 µM: 12.3%
100 µM compound, relative to solvent control, mean (SEM), read-out: % Activity Complex I
  activity at 100 µM: 4.22%
100 μM of NPD compound, C. elegans mitochondria, individual biological replicates, 100 µM
  Percent in vitro activity, Complex I (single replicate Rep1-Rep4): 0.000% and 7.255% and 9.637%
100 μM of NPD compound, C. elegans mitochondria, mean of four biological replicates, read-out: Percent in vitro activity, Complex I (Mean)
  activity at 100 µM: 4.22%
[1]
  activity at 0.0001 µM: 100%
  activity at 0.625 µM: 100%
[2]
  activity at 0.0001 µM: 100%
  activity at 0.625 µM: 100%
C. elegans, dose 0.0005 µM, Mean of replicates, read-out: Complex I activity, dose-response data
  activity at 0.0005 µM: 95.6%
C. elegans, dose 0.0005 µM, individual replicates (Rep)
  Complex I activity, dose-response data: 99.245 and 96.022 and 93.047
C. elegans, dose 0.0005 µM, individual replicates (Rep), read-out: Complex I activity, dose-response data
  activity at 0.0005 µM: 94%
C. elegans, dose 0.001 µM, Mean of replicates, read-out: Complex I activity, dose-response data
  activity at 0.001 µM: 95.6%
C. elegans, dose 0.001 µM, individual replicates (Rep)
  Complex I activity, dose-response data: 101.885 and 91.805 and 98.125
C. elegans, dose 0.001 µM, individual replicates (Rep), read-out: Complex I activity, dose-response data
  activity at 0.001 µM: 90.6%
C. elegans, dose 0.0025 µM, Mean of replicates, read-out: Complex I activity, dose-response data
  activity at 0.0025 µM: 95.4%
C. elegans, dose 0.0025 µM, individual replicates (Rep)
  Complex I activity, dose-response data: 105.286 and 89.091 and 95.022
C. elegans, dose 0.0025 µM, individual replicates (Rep), read-out: Complex I activity, dose-response data
  activity at 0.0025 µM: 92.2%
C. elegans, dose 0.005 µM, Mean of replicates, read-out: Complex I activity, dose-response data
  activity at 0.005 µM: 93.5%
C. elegans, dose 0.005 µM, individual replicates (Rep)
  Complex I activity, dose-response data: 100.896 and 97.608 and 92.236
C. elegans, dose 0.005 µM, individual replicates (Rep), read-out: Complex I activity, dose-response data
  activity at 0.005 µM: 83.3%
C. elegans, dose 0.013 µM, Mean of replicates, read-out: Complex I activity, dose-response data
  activity at 0.013 µM: 97.4%
C. elegans, dose 0.013 µM, individual replicates (Rep)
  Complex I activity, dose-response data: 86.744 and 107.737 and 98.643 and 96.409
C. elegans, dose 0.025 µM, Mean of replicates, read-out: Complex I activity, dose-response data
  activity at 0.025 µM: 99.6%
C. elegans, dose 0.025 µM, individual replicates (Rep)
  Complex I activity, dose-response data: 81.492 and 104.774 and 100.771 and 111.289
C. elegans, dose 0.063 µM, Mean of replicates, read-out: Complex I activity, dose-response data
  activity at 0.063 µM: 97%
C. elegans, dose 0.063 µM, individual replicates (Rep)
  Complex I activity, dose-response data: 104.194 and 94.273 and 98.067
C. elegans, dose 0.063 µM, individual replicates (Rep), read-out: Complex I activity, dose-response data
  activity at 0.063 µM: 91.6%
C. elegans, dose 0.125 µM, Mean of replicates, read-out: Complex I activity, dose-response data
  activity at 0.125 µM: 92.7%
C. elegans, dose 0.125 µM, individual replicates (Rep)
  Complex I activity, dose-response data: 100.304 and 94.360 and 87.363
C. elegans, dose 0.125 µM, individual replicates (Rep), read-out: Complex I activity, dose-response data
  activity at 0.125 µM: 88.8%
C. elegans, dose 0.313 µM, Mean of replicates, read-out: Complex I activity, dose-response data
  activity at 0.313 µM: 91.5%
C. elegans, dose 0.313 µM, individual replicates (Rep)
  Complex I activity, dose-response data: 102.145 and 93.069 and 82.299
C. elegans, dose 0.313 µM, individual replicates (Rep), read-out: Complex I activity, dose-response data
  activity at 0.313 µM: 88.6%
C. elegans, dose 1.5 µM, Mean of replicates, read-out: Complex I activity, dose-response data
  activity at 1.5 µM: 78.6%
C. elegans, dose 1.5 µM, individual replicates (Rep)
  Complex I activity, dose-response data: 84.112 and 75.755 and 78.095
C. elegans, dose 1.5 µM, individual replicates (Rep), read-out: Complex I activity, dose-response data
  activity at 1.5 µM: 76.6%
C. elegans, dose 3 µM, Mean of replicates, read-out: Complex I activity, dose-response data
  activity at 3 µM: 58.9%
C. elegans, dose 3 µM, individual replicates (Rep)
  Complex I activity, dose-response data: 63.002 and 56.869 and 54.489
C. elegans, dose 3 µM, individual replicates (Rep), read-out: Complex I activity, dose-response data
  activity at 3 µM: 61.4%
C. elegans, dose 15 µM, Mean of replicates, read-out: Complex I activity, dose-response data
  activity at 15 µM: 13.5%
C. elegans, dose 15 µM, individual replicates (Rep)
  Complex I activity, dose-response data: 13.403 and 18.209 and 10.130
C. elegans, dose 15 µM, individual replicates (Rep), read-out: Complex I activity, dose-response data
  activity at 15 µM: 12.3%
C. elegans, dose 37.5 µM, Mean of replicates, read-out: Complex I activity, dose-response data
  activity at 37.5 µM: 12.4%
C. elegans, dose 37.5 µM, individual replicates (Rep)
  Complex I activity, dose-response data: 3.265 and 5.642 and 23.594 and 17.069
C. elegans, dose 75 µM, Mean of replicates, read-out: Complex I activity, dose-response data
  activity at 75 µM: 12.3%
C. elegans, dose 75 µM, individual replicates (Rep)
  Complex I activity, dose-response data: 2.370 and 3.939 and 26.690 and 16.321
  IC50: 3.29 µM and 3.3 µM

## COc1ccc(Cc2nccc3cc(OC)c(OC)cc23)cc1OC [Papaverine, reference compound]
Mean of replicates
  remaining activity at 0.125 µM: 95.7%
  remaining activity at 0.313 µM: 87.5%
  remaining activity at 0.625 µM: 100%
  remaining activity at 1.5 µM: 81.8%
  remaining activity at 3 µM: 63.8%
  remaining activity at 15 µM: 22.1%
  remaining activity at 37.5 µM: 6.94%
  remaining activity at 75 µM: 7.49%
Single replicate
  remaining activity at 0.313 µM: 85.7%
  remaining activity at 0.625 µM: 100%
  remaining activity at 1.5 µM: 81.5%
  remaining activity at 3 µM: 67.5%
  IC50: 4.34 µM
